Data published in ChEMBL document CHEMBL4229568, “Discovery of natural flavonoids as activators of Nrf2-mediated defense system: Structure-activity relationship and inhibition of intracellular oxidative insults” (Bioorg Med Chem, 2018).
The source made the active and inactive calls. No cut-off for these calls is given here.

Assays:
[1] = molecular target: T1, Nuclear factor erythroid 2-related factor 2 (Homo sapiens) (UniProt Q16236); assay: Activation of Nrf2 in human BEAS2B cells assessed as upregulation of gamma-GCS protein expression at 3.12 to 25 uM after 12 hrs by immunoblot analysis; assay type: cell-based
T1 sequence (whole entry): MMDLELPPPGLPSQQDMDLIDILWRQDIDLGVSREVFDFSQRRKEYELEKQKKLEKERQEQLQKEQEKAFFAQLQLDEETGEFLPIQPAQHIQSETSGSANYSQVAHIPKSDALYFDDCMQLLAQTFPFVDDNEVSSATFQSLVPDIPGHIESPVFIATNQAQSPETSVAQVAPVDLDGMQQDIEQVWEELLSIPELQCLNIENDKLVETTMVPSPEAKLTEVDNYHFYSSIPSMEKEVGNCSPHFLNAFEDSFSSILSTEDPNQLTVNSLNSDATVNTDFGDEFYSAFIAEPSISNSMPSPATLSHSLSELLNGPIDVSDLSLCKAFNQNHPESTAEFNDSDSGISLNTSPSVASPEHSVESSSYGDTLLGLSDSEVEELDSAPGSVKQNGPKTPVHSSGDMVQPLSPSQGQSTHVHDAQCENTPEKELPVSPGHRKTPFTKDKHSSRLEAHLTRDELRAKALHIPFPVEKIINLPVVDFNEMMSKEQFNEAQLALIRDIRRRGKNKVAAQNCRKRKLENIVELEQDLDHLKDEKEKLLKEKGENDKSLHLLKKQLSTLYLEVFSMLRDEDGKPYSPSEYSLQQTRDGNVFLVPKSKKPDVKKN

[2] = molecular target: T1, Nuclear factor erythroid 2-related factor 2 (Homo sapiens); assay: Activation of Nrf2 in human BEAS2B cells assessed as upregulation of GSH levels after 24 hrs; assay type: cell-based
[3] = molecular target: T1, Nuclear factor erythroid 2-related factor 2 (Homo sapiens); assay: Activation of Nrf2 in human BEAS2B cells assessed as upregulation of Nrf2 protein expression at 6.25 uM pretreated for 1 hr followed by co-treatment with MEK1/2 inhibitor PD98059 for 18 hrs by immunoblot analysis; assay type: cell-based
BEAS-2B [4] = assay: Effect on Keap1 protein levels in human BEAS2B cells at 6.25 uM after 4 to 48 hrs by immunoblot analysis; assay type: functional, cell-based
[5] = molecular target: T1, Nuclear factor erythroid 2-related factor 2 (Homo sapiens); assay: Activation of Nrf2 in human BEAS2B cells assessed as upregulation of Nrf2 protein expression at 3.12 to 25 uM after 12 hrs by immunoblot analysis; assay type: cell-based
[6] = molecular target: T1, Nuclear factor erythroid 2-related factor 2 (Homo sapiens); assay: Activation of Nrf2 in human BEAS2B cells assessed as upregulation of Nrf2 protein expression at 0.31 to 20 uM after 18 hrs by immunoblot analysis; assay type: cell-based
BEAS-2B [7] = assay: Cytoprotective activity in human BEAS2B cells assessed as decrease in As(+3)-induced cell death at 3.12 to 25 uM preincubated for 8 hrs followed by As(+3) challenge and measured after 24 hrs by MTT assay; assay type: functional, cell-based
[8] = molecular target: T1, Nuclear factor erythroid 2-related factor 2 (Homo sapiens); assay: Activation of Nrf2 in human BEAS2B cells assessed as upregulation of NQO1 protein expression at 6.25 uM pretreated for 1 hr followed by co-treatment with p38 MAPK inhibitor SB203580 for 18 hrs by immunoblot analysis; assay type: cell-based
[9] = molecular target: T2, Nuclear factor erythroid 2-related factor 2 (Mus musculus) (UniProt Q60795); assay: Activation of Nrf2 in mouse Heap1c1c7 cells assessed as induction of NAD(P)H:quinone reductase activity at 6.25 uM pretreated for 1 hr followed by co-treatment with MEK1/2 inhibitor Uo126 for 24 hrs; assay type: cell-based
T2 sequence (whole entry): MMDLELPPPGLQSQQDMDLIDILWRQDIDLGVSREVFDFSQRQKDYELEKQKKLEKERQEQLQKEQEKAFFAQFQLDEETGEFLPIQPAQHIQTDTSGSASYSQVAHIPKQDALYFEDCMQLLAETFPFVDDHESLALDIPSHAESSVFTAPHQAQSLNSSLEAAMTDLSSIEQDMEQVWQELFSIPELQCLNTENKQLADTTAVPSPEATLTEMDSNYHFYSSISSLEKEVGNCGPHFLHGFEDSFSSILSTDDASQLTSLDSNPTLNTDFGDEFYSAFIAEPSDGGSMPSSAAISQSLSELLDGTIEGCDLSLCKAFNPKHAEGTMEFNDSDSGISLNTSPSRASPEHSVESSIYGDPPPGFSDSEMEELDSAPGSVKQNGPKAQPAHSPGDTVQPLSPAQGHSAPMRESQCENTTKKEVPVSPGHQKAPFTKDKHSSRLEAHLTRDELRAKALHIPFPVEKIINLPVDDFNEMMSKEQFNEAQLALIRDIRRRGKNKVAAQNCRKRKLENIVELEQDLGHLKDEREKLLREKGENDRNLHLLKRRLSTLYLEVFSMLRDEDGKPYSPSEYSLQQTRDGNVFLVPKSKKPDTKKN

BEAS-2B [10] = assay: Cytoprotective activity in human BEAS2B cells assessed as decrease in 5 to 20 uM As(+3)-induced cell death at 6.25 uM preincubated for 8 hrs followed by As(+3) challenge and measured after 24 hrs by MTT assay; assay type: functional, cell-based
[11] = molecular target: T1, Nuclear factor erythroid 2-related factor 2 (Homo sapiens); assay: Activation of Nrf2 in human BEAS2B cells assessed as upregulation of NQO1 protein expression at 6.25 uM pretreated for 1 hr followed by co-treatment with PKC inhibitor Go6983 for 18 hrs by immunoblot analysis; assay type: cell-based
[12] = molecular target: T2, Nuclear factor erythroid 2-related factor 2 (Mus musculus); assay: Activation of Nrf2 in mouse Heap1c1c7 cells assessed as induction of NAD(P)H:quinone reductase activity at 6.25 uM pretreated for 1 hr followed by co-treatment with PI3K inhibitor LY294002 for 24 hrs; assay type: cell-based
MDA-MB-231 = assay: Cytotoxicity against human MDA-MB-231 cells assessed as decrease in cell viability at 3.12 to 100 uM after 24 hrs by MTT assay; assay type: cell-based; conditions: mda-mb-231, 24 h
[13] = molecular target: T1, Nuclear factor erythroid 2-related factor 2 (Homo sapiens); assay: Activation of Nrf2 in human BEAS2B cells assessed as upregulation of NQO1 protein expression at 6.25 uM after 8 to 24 hrs by immunoblot analysis; assay type: cell-based
BEAS-2B [14] = assay: Effect on reactive oxygen species production in human BEAS2B cells at 6.25 uM treated for 8 hrs; assay type: ADME, cell-based
[15] = molecular target: T2, Nuclear factor erythroid 2-related factor 2 (Mus musculus); assay: Activation of Nrf2 in mouse Heap1c1c7 cells assessed as induction of NAD(P)H:quinone reductase activity at 6.25 uM pretreated for 1 hr followed by co-treatment with p38 MAPK inhibitor SB203580 for 24 hrs; assay type: cell-based
[16] = molecular target: T1, Nuclear factor erythroid 2-related factor 2 (Homo sapiens); assay: Activation of Nrf2 in human BEAS2B cells assessed as upregulation of gamma-GCS protein expression at 6.25 uM after 8 to 24 hrs by immunoblot analysis; assay type: cell-based
[17] = molecular target: T1, Nuclear factor erythroid 2-related factor 2 (Homo sapiens); assay: Activation of Nrf2 in human BEAS2B cells assessed as suppression of As(+3)-induced overproduction of reactive oxygen species at 6.25 uM pretreated for 8 hrs followed by As(+3) challenge and measured after 10 hrs; assay type: cell-based
BEAS-2B [18] = assay: Effect on Keap1 protein levels in human BEAS2B cells at <= 20 uM after 18 hrs by immunoblot analysis; assay type: functional, cell-based
[19] = molecular target: T2, Nuclear factor erythroid 2-related factor 2 (Mus musculus); assay: Activation of Nrf2 in mouse Heap1c1c7 cells assessed as induction of NAD(P)H:quinone reductase activity at 6.25 uM pretreated for 1 hr followed by co-treatment with MEK1/2 inhibitor PD98059 for 24 hrs; assay type: cell-based

COc1ccc(-c2coc3cc(OC)cc(O)c3c2=O)cc1 [4',7-DIMETHOXY-5-HYDROXYGENISTEIN]
Activity [1]: Active | Activity [2]: Dose-dependent effect | Activity [3]: inactive | Activity (BEAS-2B [4]): inactive | Activity [5]: Active | Activity [6]: Dose-dependent effect | Activity (BEAS-2B [7]): Active | Activity [8]: inactive | Activity [9]: Active | Activity (BEAS-2B [10]): Active | Activity [11]: inactive | Activity [12]: inactive | Activity (MDA-MB-231): Non-Toxic | Activity [13]: Active | Activity (BEAS-2B [14]): Non-Toxic | Activity [15]: inactive | Activity [16]: Active | Activity [17]: Active | Activity (BEAS-2B [18]): inactive | Activity [19]: inactive
